Literature values as cited in patent publication EP2742940A1, “Salts of aza-bicyclo-di-aryl ethers for adminstration once daily, twice daily or thrice daily” (IP Gesellschaft für Management mbH, priority 2012, dated 2014).
Several values for one entry are separate records, joined by “and”; a condition that tells them apart may be missing. Equal entries are not always repeated. Where two headings read alike, the source gives them in different places.

Columns and labels:
[1] = design: Initial water content / Hygroscopy @ 85%RH: unit not given here
α7-nAChR = target: T1, α7-nAChR (Homo sapiens, UniProt P36544); settings: Emax relative to epibatidine response
T1 construct: expressed in transfected cells; host or cells: GH3 cells

α4β2-nAChR = target: T2, α4β2-nAChR (Homo sapiens, UniProt P17787+P43681)
T2 construct: expressed in transfected cells

[2] = mice; for Brain (pmoles/g)±SD) / Plasma (pmoles/ml±SD): 30 µmol/kg p.o.
mice = settings: mouse, oral, Dose 0.3 mg/kg, familiar partner at 24 h vs time 0
[3] = male Wistar rats, oral 10 mg/kg, Mean All (n=8)
[4] = male Wistar rats, oral 10 mg/kg, individual rats 01-08, listed as free base, 10 mg/kg

T1 sequence (P36544 23-502): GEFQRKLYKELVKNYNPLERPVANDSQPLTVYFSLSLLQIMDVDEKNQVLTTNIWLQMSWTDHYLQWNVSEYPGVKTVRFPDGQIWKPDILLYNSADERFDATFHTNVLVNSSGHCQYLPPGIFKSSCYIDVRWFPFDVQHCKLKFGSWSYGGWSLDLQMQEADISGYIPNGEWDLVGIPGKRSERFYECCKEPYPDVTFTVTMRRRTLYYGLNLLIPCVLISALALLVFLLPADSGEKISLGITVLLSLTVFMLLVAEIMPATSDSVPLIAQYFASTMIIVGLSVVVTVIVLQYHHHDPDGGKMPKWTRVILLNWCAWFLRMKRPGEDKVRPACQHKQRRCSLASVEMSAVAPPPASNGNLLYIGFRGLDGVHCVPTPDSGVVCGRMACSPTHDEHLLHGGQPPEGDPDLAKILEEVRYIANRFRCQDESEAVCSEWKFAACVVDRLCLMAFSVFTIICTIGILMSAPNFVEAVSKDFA
T2 sequence (P43681 29-627 limits assumed): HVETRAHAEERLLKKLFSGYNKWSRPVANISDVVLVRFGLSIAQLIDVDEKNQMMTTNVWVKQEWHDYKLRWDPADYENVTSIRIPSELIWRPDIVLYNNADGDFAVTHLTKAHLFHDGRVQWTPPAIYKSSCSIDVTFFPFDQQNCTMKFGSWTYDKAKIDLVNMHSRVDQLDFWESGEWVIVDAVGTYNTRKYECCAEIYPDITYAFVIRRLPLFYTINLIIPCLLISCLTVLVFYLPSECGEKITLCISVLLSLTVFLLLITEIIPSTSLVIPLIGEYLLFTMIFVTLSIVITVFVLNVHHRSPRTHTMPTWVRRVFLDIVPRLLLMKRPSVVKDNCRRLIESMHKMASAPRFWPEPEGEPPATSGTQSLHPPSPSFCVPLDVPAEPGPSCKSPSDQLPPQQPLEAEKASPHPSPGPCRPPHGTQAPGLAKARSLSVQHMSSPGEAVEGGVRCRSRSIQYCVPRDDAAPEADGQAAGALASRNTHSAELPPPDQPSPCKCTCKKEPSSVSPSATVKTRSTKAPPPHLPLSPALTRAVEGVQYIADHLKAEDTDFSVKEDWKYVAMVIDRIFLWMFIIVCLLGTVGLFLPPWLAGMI
T2 sequence (P17787 26-502): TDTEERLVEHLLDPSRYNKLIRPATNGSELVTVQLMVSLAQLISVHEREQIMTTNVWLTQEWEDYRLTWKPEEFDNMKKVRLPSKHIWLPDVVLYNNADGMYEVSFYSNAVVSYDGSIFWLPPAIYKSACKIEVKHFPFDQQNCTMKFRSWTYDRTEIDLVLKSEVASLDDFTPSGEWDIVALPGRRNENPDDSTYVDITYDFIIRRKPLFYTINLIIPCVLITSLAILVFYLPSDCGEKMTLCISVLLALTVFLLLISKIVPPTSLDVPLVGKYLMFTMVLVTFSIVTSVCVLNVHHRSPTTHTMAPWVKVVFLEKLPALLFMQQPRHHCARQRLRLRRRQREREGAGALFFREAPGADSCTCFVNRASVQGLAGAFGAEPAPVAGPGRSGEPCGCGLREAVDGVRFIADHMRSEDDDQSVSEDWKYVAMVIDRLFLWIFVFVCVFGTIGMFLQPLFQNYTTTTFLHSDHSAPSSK

Cc1ccc(-c2ccc(O[C@H]3CN4CCC3CC4)cn2)cc1 [Compound A, (R)-3-(6-(4-methylphenyl)-pyridin-3-yloxy)-1-aza-bicyclo[2.2.2]octane]
Hygroscopy @ 85%RH ([1]; 85%RH): ∼2 | Initial water content ([1]; Example 7 comparison of salt forms): 0.1 | moisture gain ([1]; at 93% relative humidity (RH)): 2% | α7-nAChR activity Efficacy compared to epibatidine (100%) (α7-nAChR): 75% | EC50 (α4β2-nAChR): > 100 µM | Brain (pmoles/g)±SD) ([2]; 0.25 hour): 4631 ± 1717 pmol/g | Plasma (pmoles/ml±SD) ([2]; 0.25 hour): 573 ± 234 pmol/mL | Brain (pmoles/g)±SD) ([2]; 0.5 hour): 11430 ± 3441 pmol/g | Plasma (pmoles/ml±SD) ([2]; 0.5 hour): 559 ± 143 pmol/mL | Brain (pmoles/g)±SD) ([2]; 1 hour): 14948 ± 4716 pmol/g | Plasma (pmoles/ml±SD) ([2]; 1 hour): 322 ± 135 pmol/mL | Brain (pmoles/g)±SD) ([2]; 4 hour): 1272 ± 715 pmol/g | Plasma (pmoles/ml±SD) ([2]; 4 hour): 20 ± 16 pmol/mL | Brain (pmoles/g)±SD) ([2]; 8 hour): 58 ± 27 pmol/g | time for which brain concentration is beyond (or at least equal) to the compound's EC50 at the a7-nAChR ([2]; acute oral dose of 30 pmol/kg (so in the source), free base form): at least 4 hours | Reduction in time scrutinizing in % ± SEM at 24 h (mice): 36 ± 6% | AUClast [3]: 200 ng·h/mL | AUClast/Dose (h·ng/mL)/(mg/kg) [3]: 20.4 (h·ng/mL)/(mg/kg) | Cmax [3]: 112 ng/mL | Cmax/Dose (ng/mL)/(mg/kg) [3]: 11.3 (ng/mL)/(mg/kg) | Concentration in plasma, Time (h) 0.25 [3]: 100 ng/mL | Concentration in plasma, Time (h) 0.5 [3]: 83.5 ng/mL | Concentration in plasma, Time (h) 1 [3]: 52.7 ng/mL | Concentration in plasma, Time (h) 2 [3]: 31.2 ng/mL | Concentration in plasma, Time (h) 3 [3]: 16.2 ng/mL | Concentration in plasma, Time (h) 4 [3]: 10.3 ng/mL | Concentration in plasma, Time (h) 6 [3]: 437 ng/mL | Concentration in plasma, Time (h) 8 [3]: 354 ng/mL | Concentration in plasma, Time (h) 24 [3]: 0.822 ng/mL | AUClast [4]: 141 ng·h/mL and 123 ng·h/mL and 238 ng·h/mL and 136 ng·h/mL and 214 ng·h/mL and 296 ng·h/mL and 234 ng·h/mL and 236 ng·h/mL | AUClast/Dose (h·ng/mL)/(mg/kg) [4]: 14.0 (h·ng/mL)/(mg/kg) and 12.0 (h·ng/mL)/(mg/kg) and 24.4 (h·ng/mL)/(mg/kg) and 13.5 (h·ng/mL)/(mg/kg) and 21.6 (h·ng/mL)/(mg/kg) and 29.7 (h·ng/mL)/(mg/kg) and 23.4 (h·ng/mL)/(mg/kg) and 24.5 (h·ng/mL)/(mg/kg) | Cmax [4]: 58.8 ng/mL and 89.6 ng/mL and 83.0 ng/mL and 94.8 ng/mL and 119 ng/mL and 188 ng/mL and 117 ng/mL and 145 ng/mL | Cmax/Dose (ng/mL)/(mg/kg) [4]: 5.81 (ng/mL)/(mg/kg) and 8.79 (ng/mL)/(mg/kg) and 8.50 (ng/mL)/(mg/kg) and 9.40 (ng/mL)/(mg/kg) and 12.0 (ng/mL)/(mg/kg) and 18.9 (ng/mL)/(mg/kg) and 11.7 (ng/mL)/(mg/kg) and 15.0 (ng/mL)/(mg/kg) | Concentration in plasma, Time (h) 0.25 [4]: 58.8 ng/mL and 89.68 ng/mL and 3.0 ng/mL and 79.4 ng/mL and 105 ng/mL and 188 ng/mL and 49.0 ng/mL and 145 ng/mL | Concentration in plasma, Time (h) 0.5 [4]: 34.8 ng/mL and 51.2 ng/mL and 64.5 ng/mL and 94.8 ng/mL and 119 ng/mL and 122 ng/mL and 117 ng/mL and 65.0 ng/mL | Concentration in plasma, Time (h) 1 [4]: 20.1 ng/mL and 63.9 ng/mL and 36.0 ng/mL and 65.8 ng/mL and 83.6 ng/mL and 87.0 ng/mL and 33.8 ng/mL | Concentration in plasma, Time (h) 2 [4]: 679 ng/mL and 12.6 ng/mL and 51.7 ng/mL and 16.2 ng/mL and 43.2 ng/mL and 46.9 ng/mL and 42.2 ng/mL and 29.9 ng/mL | Concentration in plasma, Time (h) 3 [4]: 531 ng/mL and 838 ng/mL and 26.3 ng/mL and 784 ng/mL and 23.0 ng/mL and 34.4 ng/mL and 18.4 ng/mL and 620 ng/mL | Concentration in plasma, Time (h) 4 [4]: 394 ng/mL and 3.99 ng/mL and 18.2 ng/mL and 454 ng/mL and 8.63 ng/mL and 21.1 ng/mL and 13.8 ng/mL and 8.55 ng/mL | Concentration in plasma, Time (h) 6 [4]: 487 ng/mL and 181 ng/mL and 662 ng/mL and 127 ng/mL and 5.32 ng/mL and 438 ng/mL and 4.59 ng/mL and 606 ng/mL | Concentration in plasma, Time (h) 8 [4]: 662 ng/mL and 0.812 ng/mL and 246 ng/mL and 1.32 ng/mL and 367 ng/mL and 154 ng/mL and 225 ng/mL and 967 ng/mL | T1/2 [4]: 8.67 h and 3.24 h and 367 h | Tlast [4]: 24.0 h (3×) and 8.0 h | AUClast (rats, acute oral dosing of 10 mg/kg): 200+-62 h ng/ml
